“And” between values parts separate entries of the source, which are not always exact repeats. Equal values may be shown once.
Tests used:
[1] = tested on: IL-6; test: Human IL-6 immunoassay on SH-SY5Y cell supernatant; assay type: cell-based; conditions: medium from cells treated with AAT vs 6-OHDA induced, not significant
Method: Cells were treated for 24 hours with the neurotoxin 6-hydroxydopamine (6-OHDA, Sigma Aldrich 162957) at 50, 100 μM concentrations alone or in combination with AAT 25 μM (AAT plasma derived, Sigma Aldrich batch A9024). Cells treated with AAT alone or in combination with 6-OHDA for 24 hours, were then incubated with fresh AAT for additional 24 hours. Control cells were treated with PBS.
Human 11-6 immunoassay (R&D D6050) was performed on cells supernatant. Briefly, 40000 cells were plated in 24-well plate and treated the day after as described in paragraph “Cells and treatment”. At the end of the treatment, cells were washed with PBS and incubated with 2% FBS medium for 24 hours, then cell culture supernatants were collected and centrifuged to remove particulates. Assay procedure was performed as described by manufactured instructions, on standard and samples duplicates. Absorbance was measured at 450 nm using SpectraMax iD3 Microplate Reader. A standard curve was prepared from seven IL-6 standard dilutions and IL-6 sample concentrations determined.

[2] = tested on: C3-PMP22 transgenic mice (CMT1A); test: Sciatic nerve electrophysiology (EMG), CMT1A mouse study (50 mg/kg twice daily); assay type: in vivo; conditions: for Compound muscle action potential (Mean ± SEM) / Nerve conduction velocity (Mean ± SEM): CMT1A + AAT; for Amplitude, MEAN / Amplitude, individual mice / Conduction velocity, MEAN / Conduction velocity, individual mice / T1 distal, individual mice / T2 proximal, individual mice: CMT1A + hAAT
Excerpt: As a murine model of CMT1A we used C3-PMP22 transgenic mice (B6.Cg-Tg(PMP22)C3Fbas/J, The Jackson Laboratory) which express three copies of a wild-type human peripheral myelin protein 22 (PMP22) gene (Verhamme, Camiel, et al. Journal of Neuropathology & Experimental Neurology 70.5 (2011): 386-398). Mice were housed in macrolon cages with filter hoods, in a continuously air-filtered room, thereby avoiding contamination. During experiments, paired animals were caged at a constant temperature with a day/night cycle of 12/12 hours. Animals were fed (control tap water and nutrition) ad libitum. Animal protocol is approved by the Animal Studies Committee of Languedoc Roussillon. This protocol and the laboratory procedures comply with French legislation, which implements the European Directives (Reference Number: D3417223, APAFIS #23920-2020020320279696 v3). Animal health was followed on a daily basis to ensure that only animals in good health enter the testing procedures and follow up the study.
Animals were split in 3 groups (wild-type control (subcutaneous 0.9% NaCl), CMT1A-vehicle (subcutaneous 0.9% NaCl), CMT1A-human alpha-1 antitrypsin (subcutaneous, twice daily, 50 mg/kg per injection)) of 3 mice each (3 weeks old males of 18±2.5 g at the beginning of study) and all went through the following protocol after 7 days of acclimation on site.
On the first and last day of treatment, the neuromuscular performance of animals was tested with a rotarod test, grip test and sciatic nerve electrophysiology test. After the last treatment at 8 weeks, these tests were repeated, and animals were sacrificed and the left sciatic nerve was sampled for histological evaluation of the number and size of […].
Sciatic nerve electrophysiology (EMG) provides sensitive and quantitative approach to measure compound muscle action potential and nerve conduction velocity amplitude in the animals and was done by stimulation of the sciatic nerve. Similar compound muscle action potential (CMAP) amplitudes were observed between groups at the baseline (6 weeks old).

[3] = tested on: CIDP mice; test: Rotarod test, CIDP mouse model; assay type: in vivo; conditions: for Rotarod latency (Mean ± SEM): CIDP mice; for Rotarod latency, group Mean: group mean of 4 animals; for Rotarod latency, Mean/animal: per animal; for Rotarod latency, Mean/animal / Rotarod latency, set 1 / Rotarod latency, set 2 / Rotarod latency, set 3: listed as hAAT; for Rotarod latency, set 1 / Rotarod latency, set 2 / Rotarod latency, set 3: raw data per animal
Method: (§1) C57BL/6 mice were received at 8 weeks of age and housed under controlled conditions for the duration of the study. Three groups of 4 animals each were assigned to the following subcutaneous treatments twice daily at 7:00 AM and 7:00 PM for 2 weeks, from 20 to 35 days after the start of disease induction: • Wild type (WT) mice receiving the vehicle, 0.9% NaCl (positive control) • CIDP mice receiving the vehicle, 0.9% NaCl (negative control) • CIDP mice receiving human AAT (AAT), 50 mg/kg per injection
(§2) Disease induction consisted in subcutaneous injection of mouse sciatic nerve homogenate in phosphate buffer saline (PBS)+Freund's adjuvant mixture at 10 mL/kg. For each treatment, 3 different body sites injections were performed. Control mice also received three subcutaneous injections of PBS+Freund's adjuvant at the same 3 different body sites.
(§3) On the first (Day 20) and last (Day 35) day of treatment, the neuromuscular and performance of animals was tested with a rotarod test, grip test and a sensory test using the Von Frey filament test, as well as sciatic nerve electrophysiology test. After the last treatment at Day 35, these tests were repeated, animals were sacrificed and the left sciatic nerve was sampled for histological evaluation of the number and size of […].

[4] = tested on: plasma NfL; test: Plasma NfL quantification, CIDP mouse model; assay type: in vivo; conditions: for Plasma NfL, Mean Diff., CIDP + vehicle vs. CIDP + hAAT / Plasma NfL, Mean Diff., Sham negative control vs. CIDP + hAAT: Bonferroni's multiple comparisons test; for Plasma NfL concentration (Mean ± SD): CIDP mice; for NfL conc: per animal, listed as hAAT
Method: as §1
On the day preceding disease induction (Day 1), on the first (Day 20) and on the last (Day 35) treatment day, animals were subjected to blood samplings for the determination of neurofilament light chain (NfL), tumour necrosing factor alpha (TNFα) and TMPRSS5 levels, as described in FIG. 20. In addition, plasma levels of AAT were evaluated on the last treatment day.

[5] = tested on: CIDP mice; test: Grip strength test, CIDP mouse model; assay type: in vivo; conditions: for Grip strength (Mean ± SD): CIDP mice; for Grip strength, group Mean: group mean of 4 animals; for Grip strength, Mean/animal: per animal; for Grip strength, Mean/animal / Grip strength, set 1 / Grip strength, set 2 / Grip strength, set 3: listed as hAAT; for Grip strength, set 1 / Grip strength, set 2 / Grip strength, set 3: raw data per animal
Method: as §1, §2, §3

[6] = CIDP + AAT 50 mg/kg sc twice daily, Day 35
[7] = Day 35, AAT 50 mg/kg sc twice daily

Substance: alpha1-antitrypsin (AAT) protein
- IL-6 in cell supernatant [1]: less concentration
- NCV compared to the vehicle treated group ([2]; CMT1A + AAT treated group, 8 weeks old): increase
- Compound muscle action potential (Mean ± SEM) ([2]; 6 weeks old): 6.47 ± 0.30 mV
- Nerve conduction velocity (Mean ± SEM) ([2]; 6 weeks old): 24.91 ± 4.13 m/s
- Nerve conduction velocity (Mean ± SEM) ([2]; 8 weeks old): 20.89 ± 1.63 m/s
- Compound muscle action potential (Mean ± SEM) ([2]; 8 weeks old, p < 0.05 vs CMT1A + vehicle): 5.63 ± 1.18 mV
- Amplitude, MEAN ([2]; 6 weeks old (baseline)): 6.471 mV
- Amplitude, individual mice ([2]; 6 weeks old (baseline)): 7.030 mV and 6.025 mV and 6.359 mV
- Conduction velocity, MEAN ([2]; 6 weeks old (baseline)): 24.909 m/s
- Conduction velocity, individual mice ([2]; 6 weeks old (baseline)): 31.277 m/s and 17.182 m/s and 26.268 m/s
- T1 distal, individual mice ([2]; 6 weeks old (baseline)): 0.00202 s and 0.00207 s and 0.0016 s
- T2 proximal, individual mice ([2]; 6 weeks old (baseline)): 0.0025 s and 0.00295 s and 0.00217 s
- Amplitude, MEAN ([2]; 8 weeks old): 5.627 mV
- Amplitude, individual mice ([2]; 8 weeks old): 3.799 mV and 5.260 mV and 7.822 mV
- Conduction velocity, MEAN ([2]; 8 weeks old): 20.892 m/s
- Conduction velocity, individual mice ([2]; 8 weeks old): 23.904 m/s and 18.310 m/s and 20.464 m/s
- T1 distal, individual mice ([2]; 8 weeks old): 0.00251 s and 0.00236 s and 0.00228 s
- T2 proximal, individual mice ([2]; 8 weeks old): 0.00313 s and 0.00318 s and 0.00302 s
- EMG parameters compared to the control ([2]; CMT1A mice treated with AAT, 8 weeks old): improvement
- rotarod latency compared to the vehicle treated group [3, 6]: increase
- Rotarod latency (Mean ± SEM) ([3]; Day 20 (baseline, first treatment day)): 25.96 ± 6.16 s
- Rotarod latency (Mean ± SEM) [3, 7]: 34.96 ± 9.47 s
- Rotarod latency, group Mean ([3]; Baseline (Day 20)): 25.96 s
- Rotarod latency, group Mean ([3]; Day 35): 34.96 s
- Rotarod latency, Mean/animal ([3]; Baseline (Day 20)): 17.68 s and 29.19 s and 31.82 s and 25.13 s
- Rotarod latency, Mean/animal ([3]; Day 35): 38.90 s and 36.28 s and 43.23 s and 21.41 s
- Rotarod latency, set 1 ([3]; Baseline (Day 20)): 19.1 s and 28.0 s and 28.7 s and 24.1 s
- Rotarod latency, set 2 ([3]; Baseline (Day 20)): 17.7 s and 26.7 s and 33.0 s and 24.0 s
- Rotarod latency, set 3 ([3]; Baseline (Day 20)): 16.2 s and 32.9 s and 33.8 s and 27.3 s
- Rotarod latency, set 1 ([3]; Day 35): 32.02 s and 44.79 s and 52.44 s and 37.74 s
- Rotarod latency, set 2 ([3]; Day 35): 36.34 s and 31.48 s and 34.61 s and 19.21 s
- Rotarod latency, set 3 ([3]; Day 35): 48.35 s and 32.56 s and 42.63 s and 7.29 s
- Plasma NfL, Mean Diff., CIDP + vehicle vs. CIDP + hAAT ([4]; Day 1): 0.04828
- Plasma NfL, Mean Diff., Sham negative control vs. CIDP + hAAT ([4]; Day 1): 0.01878
- Plasma NfL, Mean Diff., CIDP + vehicle vs. CIDP + hAAT ([4]; Day 20): 0.2088
- Plasma NfL, Mean Diff., Sham negative control vs. CIDP + hAAT ([4]; Day 20): -2.85 ng/mL
- Plasma NfL, Mean Diff., CIDP + vehicle vs. CIDP + hAAT ([4]; Day 35): 1.01 ng/mL
- Plasma NfL, Mean Diff., Sham negative control vs. CIDP + hAAT ([4]; Day 35): -1.88 ng/mL
- plasma NfL concentration compared to the CIDP+vehicle treated group ([4]; CIDP + AAT, day 35): significant decrease
- Plasma NfL concentration (Mean ± SD) ([4]; Day 1): 0.29 ± 0.11 ng/mL
- Plasma NfL concentration (Mean ± SD) ([4]; Day 20): 3.12 ± 0.86 ng/mL
- Plasma NfL concentration (Mean ± SD) ([4]; Day 35): 2.30 ± 0.27 ng/mL
- NfL conc, group MEAN ([4]; Day 1): 0.29 ng/mL
- NfL conc, group MEAN ([4]; Day 20): 3.12 ng/mL
- NfL conc, group MEAN ([4]; Day 35): 2.30 ng/mL
- NfL conc ([4]; Day 1 (before model induction)): 0.3654 ng/mL and 0.2865 ng/mL and 0.3798 ng/mL and 0.1412 ng/mL
- NfL conc ([4]; Day 20 (before compound treatment)): 3.7596 ng/mL and 2.7654 ng/mL and 3.8846 ng/mL and 2.0831 ng/mL
- NfL conc ([4]; Day 35): 2.4447 ng/mL and 1.9017 ng/mL and 2.3497 ng/mL and 2.5056 ng/mL
- grip strength compared to the vehicle treated group [5, 6]: increase
- Grip strength (Mean ± SD) ([5]; Day 20 (baseline)): 2.89 ± 0.32 newtons
- Grip strength (Mean ± SD) [5, 7]: 3.59 ± 0.35 newtons
- Grip strength, group Mean ([5]; Baseline (Day 20)): 2.89 Newton
- Grip strength, group Mean ([5]; Day 35): 3.59 Newton
- Grip strength, Mean/animal ([5]; Baseline (Day 20)): 2.46 Newton and 3.19 Newton and 2.83 Newton and 3.08 Newton
- Grip strength, Mean/animal ([5]; Day 35): 3.68 Newton and 3.69 Newton and 3.91 Newton and 3.10 Newton
- Grip strength, set 1 ([5]; Baseline (Day 20)): 2.92 Newton and 3.06 Newton and 2.89 Newton and 3.50 Newton
- Grip strength, set 2 ([5]; Baseline (Day 20)): 2.43 Newton and 2.09 Newton and 2.45 Newton and 2.62 Newton
- Grip strength, set 3 ([5]; Baseline (Day 20)): 2.04 Newton and 4.42 Newton and 3.14 Newton and 3.13 Newton
- Grip strength, set 1 ([5]; Day 35): 4.92 Newton and 4.55 Newton and 5.15 Newton and 3.47 Newton
- Grip strength, set 2 ([5]; Day 35): 3.53 Newton and 2.00 Newton and 3.04 Newton and 2.61 Newton
- Grip strength, set 3 ([5]; Day 35): 2.58 Newton and 4.52 Newton and 3.53 Newton and 3.23 Newton
